Converted amounts (≈) assume the structure as drawn.

Test [1] addresses T1, Dihydrofolate reductase (Rattus norvegicus, UniProt Q920D2).
T1 sequence (Q920D2 whole entry): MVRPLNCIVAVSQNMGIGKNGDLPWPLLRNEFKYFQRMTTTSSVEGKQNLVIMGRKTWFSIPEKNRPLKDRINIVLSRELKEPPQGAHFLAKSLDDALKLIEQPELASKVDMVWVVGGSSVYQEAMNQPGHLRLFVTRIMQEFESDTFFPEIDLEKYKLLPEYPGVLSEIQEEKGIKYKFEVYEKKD
Nature of the test: Inhibition of Rat liver Dihydrofolate reductase(DHFR). The settings on record: read-out: I50.

The test system of test [2] is Klebsiella aerogenes. The test is described as follows: Inhibition of growth of Enterobacter aerogenes (2200/186) measured as MIC(compound/MIC Trimethoprim. In kind it is functional.
The subject of test [3] is Escherichia coli. The test is described as follows: Inhibition of growth of Escherichia coli (CN314) measured as MIC compound/MIC Trimethoprim. In kind it is functional.
The test system of test [4] is Klebsiella pneumoniae. The test is described as follows: Inhibition of growth of Klebsiella pneumoniae (CN3632) measured as MIC compound/MIC Trimethoprim. In kind it is functional.
Test [5] relates to Neisseria gonorrhoeae. The test is described as follows: Inhibition of growth of Neisseria gonorrhoeae. Format: functional.
Test [6] has as its system Shigella flexneri. The test is described as follows: Inhibition of growth of Shigella flexneri (CN6007) measured as MIC compound/MIC Trimethoprim. In kind it is functional.
In test [7] the test system is Staphylococcus aureus. The test is described as follows: Inhibition of growth of Staphylococcus aureus (CN491) measured as MIC compound/MIC Trimethoprim. In kind it is functional.
Test [8] deals with Proteus vulgaris. Nature of the test: Inhibition of growth of Proteus vulgaris (CN329) measured as MIC compound/MIC Trimethoprim. Format: functional.
Test [9] concerns Vibrio cholerae. Nature of the test: Inhibition of growth of Vibrio cholera (ATCC 14035) measured as MIC compound/MIC Trimethoprim. Format: functional.
The test system of test [10] is Klebsiella pneumoniae. Nature of the test: Inhibition of growth of Klebsiella pneumoniae (CN3632) was measured.
Test [11] has as its system Proteus vulgaris. The test is described as follows: Inhibition of growth of Proteus vulgaris (CN329) was measured.
Test [12] concerns Escherichia coli. Nature of the test: Inhibition of growth of Escherichia coli (CN314) was measured.
Test [13] concerns Klebsiella aerogenes. Nature of the test: microbe, parasite or virus in culture.
Description: Inhibition of growth of Enterobacter aerogenes (2200/186) was measured
Test [14] relates to Staphylococcus aureus. Nature of the test: Inhibition of growth of Staphylococcus aureus (CN491) was measured.
For test [15], the system named is Mycolicibacterium smegmatis. The test is described as follows: Inhibition of growth of Mycobacterium smegmatis (S3254) was measured.
The test system of test [16] is Vibrio cholerae. Nature of the test: microbe, parasite or virus in culture. The conditions noted are these: ATCC 14035.
Description: Inhibition of growth of Vibrio cholera (ATCC 14035) was measured
The test system of test [17] is Serratia marcescens. The test is described as follows: Inhibition of growth of Serratia marcescens (CN2398) was measured.
Test [18] deals with Salmonella.
The subject of test [19] is Shigella flexneri. The test is described as follows: Inhibition of growth of Shigella flexneri (CN6007) was measured.

Turning to `CCCc1cc(Cc2cnc(N)nc2N)cc(CC)c1OC`, the IC50 in [1] was 30 µM. Besides, the MIC ratio was determined as 100 in [2]; 30 in test [3]; 30 in test [4]; 30 in test [6]; 0.3 in test [7]; 30 in [8]. The MIC in test [5] was 17.5 µM (≈ 5.26 µg/mL); in test [9], 10 µg/mL (≈ 33.3 µM).

`C/C=C/c1cc(Cc2cnc(N)nc2N)cc(OC)c1OC`: the MIC in test [5] came to 110 µM (≈ 33 µg/mL).

For `CCc1cc(Cc2cnc(N)nc2N)cc(C)c1O`, the MIC ratio came out at 3 in test [2]; 3 in test [3]; 3 in test [4]; 3 in test [6]; 1 in test [7].

Consider `CCCc1cc(Cc2cnc(N)nc2N)cc(CCC)c1O`, for which the MIC ratio came to 30 in [2]; 10 in test [3]; 30 in [4]; 10 in test [6]; 0.3 in [7]; 30 in [8]. This molecule returned an MIC in test [9] of 1 µg/mL (≈ 3.33 µM).

On to `C=CCc1cc(Cc2cnc(N)nc2N)cc(CCC)c1O`, for which the IC50 in test [1] turned out to be 3.63 µM.

On to `CCc1cc(Cc2cnc(N)nc2N)cc(CC)c1O`, for which the MIC ratio in test [2] turned out to be 10; in test [3], 3; in [4], 10; in [6] it was 10; in test [7] it was 3; in test [8] it was 10. The same molecule came in with an MIC in test [9] of 1 µg/mL (≈ 3.67 µM).

As to `CCCc1cc(Cc2cnc(N)nc2N)cc(OC)c1OC`, in [5], the MIC was determined as 54 µM (≈ 16.3 µg/mL).

For `COc1cc(Cc2cnc(N)nc2N)cc(OC)c1OC` [TRIMETHOPRIM], the MIC in [10], in test [11], in [12], in test [13], in test [14] and in test [15] was 1 µg/mL (≈ 3.44 µM) in each case. Further, the MIC in [16] is 1 µg/mL (≈ 3.44 µM); in test [17] it was 1 µg/mL (≈ 3.44 µM); in test [5] it was 240 µM (≈ 69.7 µg/mL); in test [18] it was 1 µg/mL (≈ 3.44 µM); in [19] it was 1 µg/mL (≈ 3.44 µM).

`CC(C)(C)c1cc(Cc2cnc(N)nc2N)cc(C(C)(C)C)c1O`: the MIC ratio in test [2] is greater than 1000; in test [3], greater than 1000; in [4], greater than 1000; in [6], greater than 1000; in test [7] it was 30; in [8] it was greater than 1000. Moreover, the MIC in test [5] worked out at 35 µM (≈ 11.5 µg/mL).

As for `CCc1cc(Cc2cnc(N)nc2N)cc(C)c1OC`, the MIC ratio was 30 in test [2]; 30 in [3]; 30 in [4]; 30 in [6]; 3 in [7]; 3 in test [8]. The MIC in test [5] was determined as 140 µM (≈ 38.1 µg/mL).

Consider `CCCc1cc(Cc2cnc(N)nc2N)cc(CCC)c1OC`, for which the MIC ratio in test [2] is 100; in [3], 30; in test [4], 30; in test [6], 100; in test [7], 1; in test [8] it was 30. This molecule also showed an MIC in test [9] of 10 µg/mL (≈ 31.8 µM).

For `COc1c(C(C)(C)C)cc(Cc2cnc(N)nc2N)cc1C(C)(C)C`, the MIC ratio was greater than 1000 in [2]; 10000 in test [3]; greater than 1000 in test [4]; 30 in test [7]; greater than 1000 in test [8]. The same molecule yielded an MIC in test [5] of 13 µM (≈ 4.45 µg/mL).

As for `Cc1cc(Cc2cnc(N)nc2N)cc(C)c1O`, the MIC ratio in test [2] amounted to 1; in test [3], 10; in test [4], 3; in test [7], 10; in test [8], 3.

Take `CCCc1cc(Cc2cnc(N)nc2N)cc(CC)c1O`: the MIC ratio in test [2] amounted to 10; in [3], 10; in [4], 3; in test [6] it was 3; in test [7], 0.3; in [8], 3. Further, the MIC was 9 µM (≈ 2.58 µg/mL) in test [5] and 1 µg/mL (≈ 3.49 µM) in [9].

Regarding `COc1c(C(C)C)cc(Cc2cnc(N)nc2N)cc1C(C)C`, the MIC ratio in test [2] was greater than 1000; in test [3] it was 3000; in test [4], greater than 1000; in test [7], 30; in test [8] it was greater than 1000.

Consider `CCc1cc(Cc2cnc(N)nc2N)cc(CC)c1OC`, for which the MIC ratio in test [2] is 10; in test [3], 3; in test [4], 10; in test [6] it was 3; in test [7] it was 0.3; in [8], 30.

Take `COc1c(C)cc(Cc2cnc(N)nc2N)cc1C(C)(C)C`: the MIC ratio in test [2] was 300; in test [3] it was 100; in test [4] it was greater than 100; in test [6], 300; in test [7], 10; in test [8], greater than 30. For the same molecule, in test [9], the MIC turned out to be 10 µg/mL (≈ 33.3 µM).

Regarding `Cc1cc(Cc2cnc(N)nc2N)cc(C(C)(C)C)c1O`, the MIC ratio worked out at 100 in test [2]; 100 in test [3]; 100 in test [4]; 30 in test [6]; 3 in [7]; 100 in test [8].

Turning to `C=CCc1cc(Cc2cnc(N)nc2N)cc(OC)c1OC`, the MIC in test [5] worked out at 110 µM (≈ 33 µg/mL).

For `COc1c(C)cc(Cc2cnc(N)nc2N)cc1C`, the MIC ratio amounted to 1000 in test [2]; 1000 in test [3]; 300 in test [4]; 100 in test [7]; 300 in [8]. For the same molecule, the MIC in [5] amounted to 200 µM (≈ 51.7 µg/mL).

`CCOc1cc(Cc2cnc(N)nc2N)cc(OC)c1OC` returned an MIC in test [5] of 180 µM (≈ 54.8 µg/mL).

The values above are taken from ChEMBL document CHEMBL1124217, “2,4-Diamino-5-benzylpyrimidines and analogues as antibacterial agents. 9. Lipophilic trimethoprim analogues as antigonococcal agents” (J Med Chem, 1988).
